Reference: US8299296B2, “Spiro compounds and pharmaceutical use thereof” (Japan Tobacco Inc., priority 2007, dated 2012)
Structures can show the parent of a compound that is named as a salt.

Target: T1, human GPR40 (Homo sapiens, UniProt O14842)
T1 construct: expressed in transfected cells
Assay: Ca2+ mobilization (FLIPR) in a stable GPR40-expressing cell; GPR40 agonist activity
Type: cell-based
Conditions: compound concentration corresponding to 50% PosiC, 100% = intracellular calcium level induced by 80 μM palmitic acid
Procedure: Evaluation of effect of test compounds on Ca^2+ mobilization by using a stable GPR40-expressing cell A stable human GPR40-expressing HEK293 cell was used. A cell suspension was prepared such that the above-mentioned cells were present at 6×10^5 cells/mL in a cell culture medium (D-MEM (Nikken Bio Medical Laboratory) supplemented with 10% (v/v) fetal bovine serum (Biowest) and 1% (v/v) penicillin-streptomycin solution (Invitrogen)). The cell suspension was plated in a 384-well plate (poly-D-lysine coated plate; Falcon) in a volume of 25 μl/well, and the plate was incubated at 37° C. in an atmosphere of 5% CO2 overnight. Each test compound was added to the cell at each concentration as below, and then the change in intracellular calcium level was measured by FLIPR^TETRA (Molecular Devices). Before the FLIPR assay, the following preparative solutions were prepared. First, an assay buffer was prepared for use in the preparation of a fluorescent dye solution and a diluent buffer solution. The assay buffer was prepared by adding 1M HEPES solution (Invitrogen) to Hanks' Balanced Salt Solution (Invitrogen), followed by adjusting the pH to 7.4 with 1M NaOH (Nacalai Tesque). Next, the fluorescent dye solution and the diluent buffer solution were prepared. The fluorescent dye solution was prepared in accordance with the instruction manual attached to Fluo-4NW calcium assay kit (Invitrogen), followed by addition of bovine serum albumin (Sigma) to a final concentration of 0.1% (w/v). The diluent buffer solution was prepared by adding bovine serum albumin (Sigma) to the assay buffer to give a final concentration of 0.1% (w/v). After removing a medium supernatant from the cell culture plate incubated overnight, the fluorescent dye solution was added to the plate in a volume of 25 μl/well. The plate was incubated at 37° C. in an atmosphere of 5% CO2 for 90 minutes to promote the fluorescent dye uptake in the cell. Meanwhile, the test compounds (i.e., the compounds prepared in Examples) dissolved in dimethyl sulfoxide (DMSO; Nacalai Tesque) were diluted with the diluent buffer solution, to prepare each compound solution at each concentration. In addition, a palmitic acid solution was prepared as a positive control solution (hereinafter abbreviated as PosiC). A 40 μl aliquot of each sample solution prepared as above was added to each well of a 384-well polypropylene plate to prepare a compound plate. Finally, after the sufficient uptake of the fluorescent dye in the cell, the cell plate and the compound plate were set to FLIPR^TETRA. After the above pretreatment, the change in intracellular calcium level was measured by FLIPR^TETRA upon addition of 25 μl of each test compound solution at each concentration. The GPR40 agonist activity of each test compound at each concentration was determined as a relative activity level (% PosiC) with the intracellular calcium level induced by 80 μM palmitic acid (a GPR40 agonist) set to 100%. Next, each compound concentration corresponding to 50% PosiC was calculated based on the % PosiC value, to compare between agonist activities of the test compounds. In the tables, “++++” indicates 0.01 μM or more but less than 0.1 μM, “+++” indicates 0.1 μM or more but less than 1 μM, “++” indicates 1 μM or more but less than 10 μM, and “+” indicates 10 μM or more for 50% posiC value. In the tables, “N.T.” indicates “not tested”.

T1 sequence (O14842 whole entry): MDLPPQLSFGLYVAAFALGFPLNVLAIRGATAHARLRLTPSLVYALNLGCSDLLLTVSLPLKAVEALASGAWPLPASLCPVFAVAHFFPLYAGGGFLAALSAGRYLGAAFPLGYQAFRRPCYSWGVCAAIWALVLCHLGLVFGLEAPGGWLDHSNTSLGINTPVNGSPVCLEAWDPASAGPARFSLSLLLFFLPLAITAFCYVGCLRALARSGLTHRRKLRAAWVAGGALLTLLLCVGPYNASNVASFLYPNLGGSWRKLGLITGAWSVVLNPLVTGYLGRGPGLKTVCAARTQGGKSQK

Row | Structure (SMILES) | EC50 [nM]
1 | O=C(O)CCc1ccc(OCC2CCC3(CCCCC3)CC2)cc1 [Example 57, 3-[4-(spiro[5.5]undec-3-ylmethoxy)-phenyl]-propionic acid] | 1000 to 10000
2 | CC#C[C@@H](CC(=O)O)c1ccc(OCC2CCC3(CCC3)C2)cc1 (mixture of isomers) [Example 118, (3S)-3-[4-(spiro[3.4]oct-6-ylmethoxy)-phenyl]-hex-4-ynoic acid] | 100 to 1000
3 | CC1=CCCC(C)C12CCCC(COc1ccc(CCC(=O)O)cc1)C2 (racemic) [Example 50, 3-[4-(7,11-dimethyl-spiro[5.5]undec-7-en-2-ylmethoxy)-phenyl]-propionic acid] | 100 to 1000
4 | O=C(O)CCc1ccc(OCC2=CC3(CCCC3)CCC2)c(O)c1 [Example 110, 3-[3-hydroxy-4-(spiro[4.5]dec-6-en-7-ylmethoxy)-phenyl]-propionic acid] | 100 to 1000
5 | COc1cc(CCC(=O)O)ccc1OCC1=CC2(CCCC2)CCC1 [Example 111, 3-[3-methoxy-4-(spiro[4.5]dec-6-en-7-ylmethoxy)-phenyl]-propionic acid] | ≥ 10000
6 | Cn1nnnc1C(CC(=O)O)c1ccc(OCC2CCCC3(CCCCC3)C2)cc1 (racemic) [Example 40, 3-(1-methyl-1H-tetrazol-5-yl)-3-[4-(spiro[5.5]undec-2-ylmethoxy)-phenyl]-propionic acid] | 10 to 100
7 | CC#C[C@@H](CC(=O)O)c1ccc(OCC2=C[C@]3(CCC2)CC[C@H](O)C3)cc1 [Example 107, (3S)-3-[4-((2S,5R)-2-hydroxy-spiro[4.5]dec-6-en-7-ylmethoxy)-phenyl]-hex-4-ynoic acid sodium salt] | 100 to 1000
8 | CC#C[C@@H](CC(=O)O)c1ccc(OCC2CCC3(CCCCC3)C2)cc1 (stereo partly drawn) [Example 27, (3S)-3-[4-(spiro[4.5]dec-2-ylmethoxy)-phenyl]-hex-4-ynoic acid sodium salt] | 100 to 1000
9 | CC#C[C@H](c1ccc(OCC2CCCC3(CCCCC3)C2)cc1)C1SC(=O)NC1=O (mixture of isomers) [Example 68, 5-{(1S)-1-[4-(spiro[5.5]undec-2-ylmethoxy)-phenyl]-but-2-ynyl}-thiazolidine-2,4-dione] | 1000 to 10000
10 | CC1(C)CCCCC12CCCC(COc1ccc(CCC(=O)O)cc1)C2 (racemic) [Example 56, 3-[4-(7,7-dimethyl-spiro[5.5]undec-2-ylmethoxy)-phenyl]-propionic acid] | 1000 to 10000
11 | CC#C[C@@H](CC(=O)O)c1ccc(OCC2CCC3(CCCC3)C2)cc1 (mixture of isomers) [Example 30, (3S)-3-[4-(spiro[4.4]non-2-ylmethoxy)-phenyl]-hex-4-ynoic acid] | 100 to 1000
12 | COC(CC(=O)O)c1ccc(OCC2CCCC3(CCCCC3)C2)cc1 (racemic) [Example 80, 3-methoxy-3-[4-(spiro[5.5]undec-2-ylmethoxy)-phenyl]-propionic acid] | 1000 to 10000
13 | CC#C[C@@H](CC(=O)O)c1ccc(OCC2=CCC3(CCCCC3)C2)cc1 [Example 14, (S)-3-[4-(spiro[4.5]dec-2-en-2-ylmethoxy)-phenyl]-hex-4-ynoic acid sodium salt] | 100 to 1000
14 | CC#C[C@@H](CC(=O)O)c1ccc(OCC2=CCCC3(CCCCC3)C2)cc1 [Example 2, (S)-3-[4-(spiro[5.5]undec-2-en-2-ylmethoxy)-phenyl]-hex-4-ynoic acid sodium salt] | 10 to 100
15 | CC#C[C@@H](CC(=O)O)c1ccc(OCC2CCC3(CCCCC3)CC2)cc1 [Example 24, (S)-3-[4-(spiro[5.5]undec-3-ylmethoxy)-phenyl]-hex-4-ynoic acid] | 100 to 1000
16 | CC1CCCC(C)C12CCCC(COc1ccc(CCC(=O)O)cc1)C2 (racemic) [Example 51, 3-[4-(7,11-dimethyl-spiro[5.5]undec-2-ylmethoxy)-phenyl]-propionic acid] | 1000 to 10000
17 | CC#CC(CC(=O)O)c1ccc(COC2CCCC3(CCCCC3)C2)cc1 (racemic) [Example 82, 3-[4-(spiro[5.5]undec-2-yloxymethyl)-phenyl]-hex-4-ynoic acid] | 1000 to 10000
